Values quoted from earlier work in PubChem BioAssay AID1259409 (Chemical Carcinogenesis Research Information System (CCRIS), 2018).

Tested on: rodent chemically induced tumor inhibition, incidence and multiplicity
Assay: CCRIS tumor inhibitor studies

## C=CC1=C(C)C2=CC3=NC(=C(CC(=O)O)C4=NC(=C(C)C4=C(O)O)C=c4[nH]c(c(C)c4CC)=CC1=N2)C(CCC(=O)O)C3C (stereo not given)
Carcinogen: 2-AMINO-3-METHYLIMIDAZO[4,5-F]QUINOLINE [76180-96-6], Dose [Inhibitor]: 0, 0.01% (W/V BASED ON TOTAL CHLORINS) IN DRINKING WATER BEGINNING 1 WK POST CARCINOGEN TREATMENT FOR THE DURATION STUDY, Route [Inhibitor]: ORAL, Species: RAT, Strain/Sex: F344/MALE, Target Tissue: Type of Lesion: SMALL INTESTINE: TUMOR, Dose [Carcinogen]: 0.03% IN DIET FOR FIRST 5 WK (STUDY DURATION: 52 WK), Promoter: NONE
  outcome: 0/22 (0%), 2/20 (10%), -%, not significant
Carcinogen: 2-AMINO-3-METHYLIMIDAZO[4,5-F]QUINOLINE [76180-96-6], Dose [Inhibitor]: 0, 0.01% (W/V BASED ON TOTAL CHLORINS) IN DRINKING WATER BEGINNING 1 WK POST CARCINOGEN TREATMENT FOR THE DURATION STUDY, Route [Inhibitor]: ORAL, Species: RAT, Strain/Sex: F344/MALE, Target Tissue: Type of Lesion: ZYMBAL'S GLAND: TUMOR, Dose [Carcinogen]: 0.03% IN DIET FOR FIRST 5 WK (STUDY DURATION: 52 WK), Promoter: NONE
  tumour outcome (control, treated, inhibition, significance): 5/22 (23%), 5/20 (25%), -9%, not significant
Carcinogen: 2-AMINO-3-METHYLIMIDAZO[4,5-F]QUINOLINE [76180-96-6], Dose [Inhibitor]: 0, 0.1% (W/V BASED ON TOTAL CHLORINS) IN DRINKING WATER BEGINNING 1 WK POST CARCINOGEN TREATMENT FOR THE DURATION STUDY, Route [Inhibitor]: ORAL, Species: RAT, Strain/Sex: F344/MALE, Target Tissue: Type of Lesion: COLON: TUMOR, Dose [Carcinogen]: 0.03% IN DIET FOR FIRST 5 WK (STUDY DURATION: 52 WK), Promoter: NONE
  tumour outcome (control, treated, inhibition, significance): 2/22 (9%), 2/22 (9%), 0%, not significant
Carcinogen: 2-AMINO-3-METHYLIMIDAZO[4,5-F]QUINOLINE [76180-96-6], Dose [Inhibitor]: 0, 0.1% (W/V BASED ON TOTAL CHLORINS) IN DRINKING WATER BEGINNING 1 WK POST CARCINOGEN TREATMENT FOR THE DURATION STUDY, Route [Inhibitor]: ORAL, Species: RAT, Strain/Sex: F344/MALE, Target Tissue: Type of Lesion: LIVER: TUMOR, Dose [Carcinogen]: 0.03% IN DIET FOR FIRST 5 WK (STUDY DURATION: 52 WK), Promoter: NONE
  tumour outcome (control, treated, inhibition, significance): 16/22 (73%), 8/22 (36%), 51%, p<0.05
Carcinogen: 2-AMINO-3-METHYLIMIDAZO[4,5-F]QUINOLINE [76180-96-6], Dose [Inhibitor]: 0, 0.1% (W/V BASED ON TOTAL CHLORINS) IN DRINKING WATER BEGINNING 1 WK POST CARCINOGEN TREATMENT FOR THE DURATION STUDY, Route [Inhibitor]: ORAL, Species: RAT, Strain/Sex: F344/MALE, Target Tissue: Type of Lesion: SKIN: TUMOR, Dose [Carcinogen]: 0.03% IN DIET FOR FIRST 5 WK (STUDY DURATION: 52 WK), Promoter: NONE
  tumour outcome (control, treated, inhibition, significance): 7/22 (32%), 8/22 (36%), -12.5%, not significant
Carcinogen: 2-AMINO-3-METHYLIMIDAZO[4,5-F]QUINOLINE [76180-96-6], Dose [Inhibitor]: 0, 0.1% (W/V BASED ON TOTAL CHLORINS) IN DRINKING WATER BEGINNING 1 WK POST CARCINOGEN TREATMENT FOR THE DURATION STUDY, Route [Inhibitor]: ORAL, Species: RAT, Strain/Sex: F344/MALE, Target Tissue: Type of Lesion: SMALL INTESTINE: TUMOR, Dose [Carcinogen]: 0.03% IN DIET FOR FIRST 5 WK (STUDY DURATION: 52 WK), Promoter: NONE
  outcome: 0/22 (0%), 0/22 (0%), 0%, not significant
Carcinogen: 2-AMINO-3-METHYLIMIDAZO[4,5-F]QUINOLINE [76180-96-6], Dose [Inhibitor]: 0, 0.1% (W/V BASED ON TOTAL CHLORINS) IN DRINKING WATER BEGINNING 1 WK POST CARCINOGEN TREATMENT FOR THE DURATION STUDY, Route [Inhibitor]: ORAL, Species: RAT, Strain/Sex: F344/MALE, Target Tissue: Type of Lesion: ZYMBAL'S GLAND: TUMOR, Dose [Carcinogen]: 0.03% IN DIET FOR FIRST 5 WK (STUDY DURATION: 52 WK), Promoter: NONE
  tumour outcome (control, treated, inhibition, significance): 5/22 (23%), 3/22 (14%), 39%, not significant
Carcinogen: 7,12-DIMETHYLBENZ[A]ANTHRACENE [57-97-6], Dose [Inhibitor]: 0, 0.5% IN 0.2 ML DMSO-ACETONE (15:85, V/V) 2X/WK FOR 30 WK 10 MIN PRIOR TO PROMOTER DOSE (STUDY DURATION: 31 WK), Route [Inhibitor]: DERMAL, Species: MOUSE, Strain/Sex: ICR/FEMALE, Target Tissue: Type of Lesion: SKIN: PAPILLOMA, Dose [Carcinogen]: 0.2 UMOL ONCE (STUDY DURATION: 31 WK), Promoter: 12-O-TETRADECANOYLPHORBOL-13-ACETATE [16561-29-8]
  tumour outcome (control, treated, inhibition, significance): 100%, 40%, 60%, not calculated
Carcinogen: DIBENZO[A,L]PYRENE [191-30-0], Dose [Inhibitor]: 2052 PPM IN DIET FOR 3 WK BEGINNING 1 WK PRIOR TO FIRST CARCINOGEN DOSE (STUDY DURATION: 11 MONTHS), Route [Inhibitor]: ORAL, Species: FISH, Strain/Sex: SHASTA STRAIN RAINBOW TROUT/MALE,FEMALE, Target Tissue: Type of Lesion: LIVER: TUMOR, Dose [Carcinogen]: 500 PPM IN DIET FOR 2 WK (STUDY DURATION: 11 MONTHS), Promoter: NONE
  tumour outcome (control, treated, inhibition, significance): 61%, 18%, 70%, p<0.001
Carcinogen: DIBENZO[A,L]PYRENE [191-30-0], Dose [Inhibitor]: 2052 PPM IN DIET FOR 3 WK BEGINNING 1 WK PRIOR TO FIRST CARCINOGEN DOSE (STUDY DURATION: 11 MONTHS), Route [Inhibitor]: ORAL, Species: FISH, Strain/Sex: SHASTA STRAIN RAINBOW TROUT/MALE,FEMALE, Target Tissue: Type of Lesion: STOMACH: TUMOR, Dose [Carcinogen]: 500 PPM IN DIET FOR 2 WK (STUDY DURATION: 11 MONTHS), Promoter: NONE
  tumour outcome (control, treated, inhibition, significance): 91%, 34%, 63%, p<0.001
Carcinogen: DIBENZO[A,L]PYRENE [191-30-0], Dose [Inhibitor]: 2052 PPM IN DIET FOR 3 WK BEGINNING 1 WK PRIOR TO FIRST CARCINOGEN DOSE (STUDY DURATION: 11 MONTHS), Route [Inhibitor]: ORAL, Species: FISH, Strain/Sex: SHASTA STRAIN RAINBOW TROUT/MALE,FEMALE, Target Tissue: Type of Lesion: SWIM BLADDER: TUMOR, Dose [Carcinogen]: 500 PPM IN DIET FOR 2 WK (STUDY DURATION: 11 MONTHS), Promoter: NONE
  tumour outcome (control, treated, inhibition, significance): 53%, 3%, 94%, p<0.001
Carcinogen: DIBENZO[A,L]PYRENE [191-30-0], Dose [Inhibitor]: 4000 PPM IN DIET FOR 5 WK BEGINNING 1 WK PRIOR TO FIRST CARCINOGEN DOSE (STUDY DURATION: 9 MONTHS), Route [Inhibitor]: ORAL, Species: FISH, Strain/Sex: SHASTA STRAIN RAINBOW TROUT/MALE,FEMALE, Target Tissue: Type of Lesion: LIVER: TUMOR, Dose [Carcinogen]: 200 PPM IN DIET FOR 4 WK (STUDY DURATION: 9 MONTHS), Promoter: NONE
  tumour outcome (control, treated, inhibition, significance): 36%, 13%, 64%, p<0.001
Carcinogen: DIBENZO[A,L]PYRENE [191-30-0], Dose [Inhibitor]: 4000 PPM IN DIET FOR 5 WK BEGINNING 1 WK PRIOR TO FIRST CARCINOGEN DOSE (STUDY DURATION: 9 MONTHS), Route [Inhibitor]: ORAL, Species: FISH, Strain/Sex: SHASTA STRAIN RAINBOW TROUT/MALE,FEMALE, Target Tissue: Type of Lesion: STOMACH: TUMOR, Dose [Carcinogen]: 200 PPM IN DIET FOR 4 WK (STUDY DURATION: 9 MONTHS), Promoter: NONE
  tumour outcome (control, treated, inhibition, significance): 48%, 13%, 73%, p<0.001
Carcinogen: DIBENZO[A,L]PYRENE [191-30-0], Dose [Inhibitor]: 4000 PPM IN DIET FOR 5 WK BEGINNING 1 WK PRIOR TO FIRST CARCINOGEN DOSE (STUDY DURATION: 9 MONTHS), Route [Inhibitor]: ORAL, Species: FISH, Strain/Sex: SHASTA STRAIN RAINBOW TROUT/MALE,FEMALE, Target Tissue: Type of Lesion: SWIM BLADDER: TUMOR, Dose [Carcinogen]: 200 PPM IN DIET FOR 4 WK (STUDY DURATION: 9 MONTHS), Promoter: NONE
  tumour outcome (control, treated, inhibition, significance): 30%, 5%, 83%, p<0.001
Dose [Inhibitor]: 250 mg/kg chlorophyllin by gavage daily for 10 days (Study duration 18 wk) (Test material solvent: tricaprylin), Route [Inhibitor]: Oral, Species: Rat, Strain/Sex: F344/Male, Target Tissue: Type of Lesion: Liver: GST placental form positive foci. Colon: aberrant crypt foci, Dose [Carcinogen]: 250 ug/kg by gavage daily for 10 days along or in combination with inhibitor (Study duration 18 wk) (Test material solve, Promoter: None
  outcome: liver: 74% reduction in vol % of liver occupied (p<0.001) colon; 63% reduction i
